The values below come from patent US20250188123A1, “PROTEASE INHIBITORS” (Regents of the University of Minnesota, priority 2022, published 2025).

Like-named read-outs stand apart in the source and are kept apart here. *1 amine or outer side, *2 acyl side, *3 side chain or, on linkers, in order; H or OH if unused. Where a SMILES comes first, the peptide text is derived from it. [ ]: non-standard residue; d: D form. ξ: configuration not given here. X1 = Cc1ccc2c(c1)CCN([*:1])[C@@H]2C(=O)[*:2]; ξ(indoline-2-carboxyl) = O=C(O)C1Cc2ccccc2N1; ξTHIQ1CO(6-Me) = Cc1ccc2c(c1)CCNC2C(=O)O; X3 = O=C([C@@H]1Cc2ccccc2N1[*:1])[*:2]; Aad = N[C@@H](CCCC(=O)O)C(=O)O; Tle = CC(C)(C)[C@H](N)C(=O)O Where only a bound is given, the exact number is not on record here.

For one test, the target named is T1, human caspase-2 (Homo sapiens, UniProt P42575).
T1 construct: inferred from pET23b, XhoI reverse primer without stop codon, Ni-NTA purification) (C); made in house; host or cells: E. coli BL21(DE3)
T1 sequence (P42575 170-452): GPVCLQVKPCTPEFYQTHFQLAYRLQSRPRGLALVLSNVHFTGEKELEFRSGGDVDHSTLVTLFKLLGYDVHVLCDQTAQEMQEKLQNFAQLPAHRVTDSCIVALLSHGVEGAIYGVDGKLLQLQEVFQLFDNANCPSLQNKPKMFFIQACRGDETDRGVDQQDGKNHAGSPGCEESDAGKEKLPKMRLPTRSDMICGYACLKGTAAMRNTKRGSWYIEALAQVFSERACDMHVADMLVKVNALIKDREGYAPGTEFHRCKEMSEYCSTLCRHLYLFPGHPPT
Briefly: Fluorescent enzyme assay, Casp2 (AFC substrate Z-VDVAD-AFC). Type of test: biochemical. The following applies: for Ki (Casp3) / Ki (Casp2): selectivity Casp2 over Casp3. The text has this:
(§1) Human recombinant Casp1, 6, 7, and 9 were purchased from BioVision (Milpitas/CA, USA). AFC fluorogenic substrates and control peptides (AcYVAD-CHO, AcVDVAD-CHO, AcDEVD-CHO, AcVEID-CHO, and AcLEHD-CHO) were purchased from Bachem (Torrance/CA, USA). The pET23b vector encoding human caspase-3 was a gift of Dr. Michelle Arkin at University of California, San Francisco. Expression and purification of Casp3 was guided by previously described protocols (Denault J-B, Salvesen G S., Current Protocols in Protein Science, 2002, 30(1), 21.13. 1-21.13. 15). Briefly, the plasmid was transformed into E. coli Rosetta 2 pLyss DE3 cells that were cultured at 1 L scale in shake flasks. Five hours post induction with IPTG, cells were harvested through centrifugation (4000 g for 10 minutes at 4° C.), lysed by sonication, and centrifuged again for 30 minutes at 20000 g. Supernatant was resuspended in buffer (100 mM Tris pH 8.0, 500 mM NaCl). Purification was achieved by nickel-affinity chromatography followed by ion-exchange chromatography. Protein was diluted to 0.5 mg/mL and stored at −80° C. in 100 mM Tris, pH 8.0 supplemented with 10% glycerol. The typical yield for the expression, isolation, and purification was approximately 3 mg/L. The DNA encoding human caspase-2 (hCASP2, amino acids 170-452, free of the N-terminal caspase activation and recruitment domain) open reading frame (ORF) was amplified via polymerase chain reaction (PCR) from full-length hCASP2 cDNA (Origene, Rockville, MD; Cat #SC321316) using following primers: forward, 5′-[…]-3′; reverse, 5′-[…]-3′. The PCR fragment was then cloned into the pET23b vector (Millipore Sigma, Burlington, MA), and DNA sequence was verified by classic Sanger sequencing analyses. Site-directed mutageneses were carried out using a QuikChange II XL site-directed mutagenesis kit (Agilent Technologies, Santa Clara, CA; Cat #200522) according to the manufacturer's instruction. Expression of recombinant hCASP2 was induced using 150 μM isopropyl-β-D-thiogalactopyranoside (IPTG) (Promega, Madison, WI) in the BL21(DE3) E. coli strain (Millipore Sigma) at 16° C. for 14 hours while shaking at 250 rpm. Cells were then harvested via centrifugation at 6,000 g, 4° C. for 15 minutes, followed by lysis via sonication. Proteins were initially purified using HisPur Ni-NTA resin (Thermo Fisher Scientific, Waltham, MA) followed by metal chelating chromatography (5 mL HiTrap Chelating HP columns (GE Healthcare Life Sciences, Piscataway, NJ)). Further purification was carried out using anion exchange chromatography (5 mL HiTrap Q HP columns (GE Healthcare Life Sciences)) for hCASP2. Proteins were stored in 1× phosphate-buffered saline (pH 7.4) at 10 mg/mL (concentration determined using a BCA assay (Thermo Fisher Scientific)), −80° C. until further use.
(§2) KM values were determined experimentally to be the following: Casp1: 5.9 μM; Casp2: 37.1 μM; Casp3: 7.6 μM; Casp6: 14.5 μM; Casp7: 13.8 μM; Casp9: 149.1 μM. Enzymes were diluted in buffer: 100 mM MES (pH 6.5) for Casp2 and or 100 mM HEPES (pH 7.0) for all other caspases, plus 150 mM NaCl, 0.1% CHAPS, 1.5% sucrose, 10 mM DTT. Enzyme concentrations were 0.05 U/well for Casp1, 6, and 7; 0.5 U/well for Casp9, 20 nM/well for Casp2, and 2 nM/well for Casp3. Enzyme in buffer (19 μL) was added per well in a black 384-well Corning 4514 assay plate. Test compounds were serially diluted in dimethyl sulfoxide (DMSO) and plated in duplicate into a Corning 3656 transfer plate. Test compound was added to assay plates in 0.5 μL aliquots per well and mixed 10 times using a BiomekFX (Beckman Coulter). Compound and enzyme mixture was incubated at 37° C. for 5 minutes for aldehyde warheads and 45 minutes for cyano warheads. […]

The target of a further test is T2, human caspase-3 (Homo sapiens, UniProt P42574).
T2 construct: made in house; host or cells: E. coli Rosetta 2 pLysS DE3
T2 sequence (P42574 29-277): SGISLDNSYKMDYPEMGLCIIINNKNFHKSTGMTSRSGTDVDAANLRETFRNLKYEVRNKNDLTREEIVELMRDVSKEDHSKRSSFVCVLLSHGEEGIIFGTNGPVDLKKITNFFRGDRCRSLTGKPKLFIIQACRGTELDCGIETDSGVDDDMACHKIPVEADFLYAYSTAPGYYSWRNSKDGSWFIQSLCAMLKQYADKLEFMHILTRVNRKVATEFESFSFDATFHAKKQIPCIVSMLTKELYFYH
Briefly: Fluorescent enzyme assay, Casp3 (AFC substrate AcDEVD-AFC). Type of test: biochemical.
From the text: as §1, §2

[1] abbreviates: mean ± SEM of N independent experiments, each in duplicate or triplicate, read-out: pKi ± SEM Casp 2 (converted).
Where [2] appears, read: mean ± SEM of N independent experiments, each in duplicate or triplicate, read-out: pKi ± SEM Casp 3 (converted).

`Cc1ccc2c(c1)CCN(C(=O)[C@@H](NC(=O)[C@H](CCCC(=O)O)NC(=O)[C@@H]1Nc3ccc(F)cc3C1(C)C)C(C)C)[C@@H]2C(=O)N[C@H](C=O)CC(=O)O` [Compound 12, (S)-6-(((S)-1-((S)-1-(((S)-1-carboxy-3-oxopropan-2-yl)carbamoyl)-6-methyl-3,4-dihydroisoquinolin-2(1H)-yl)-3-methyl-1-oxobutan-2-yl)amino)-5-((R)-5-fluoro-3,3-dimethylindoline-2-carboxamido)-6-oxohexanoic acid hydrotrifluoroacetate]: on human caspase-2, the Ki was 4.17 µM and the “Ki (Casp3) / Ki (Casp2)” value came out at 24. On human caspase-3, this molecule registered a Ki of over 100 µM.
On to `Cc1ccc2c(c1)CCN(C(=O)CNC(=O)[C@H](CCCC(=O)O)NC(=O)[C@@H]1Cc3ccccc3N1)[C@@H]2C(=O)N[C@H](C=O)CC(=O)O` [Compound 5, (S)-6-((2-((S)-1-(((S)-1-carboxy-3-oxopropan-2-yl)carbamoyl)-6-methyl-3,4-dihydroisoquinolin-2(1H)-yl)-2-oxoethyl)amino)-5-((S)-indoline-2-carboxamido)-6-oxohexanoic acid hydrotrifluoroacetate], for which the Ki at human caspase-2 is 0.017 µM; on human caspase-3, 5.5 µM. The “Ki (Casp3) / Ki (Casp2)” value on human caspase-2 is given as 324.
For `Cc1ccc2c(c1)CCN(C(=O)[C@@H](NC(=O)[C@H](CCCC(=O)O)NC(=O)[C@H]1Nc3ccc(F)cc3C1(C)C)C(C)C)C2C(=O)N[C@H](C=O)CC(=O)O` (stereo partly drawn) [Compound 13, (S)-6-(((S)-1-((S)-1-(((S)-1-carboxy-3-oxopropan-2-yl)carbamoyl)-6-methyl-3,4-dihydroisoquinolin-2(1H)-yl)-3-methyl-1-oxobutan-2-yl)amino)-5-((S)-5-fluoro-3,3-dimethylindoline-2-carboxamido)-6-oxohexanoic acid hydrotrifluoroacetate], the Ki on human caspase-2 is 0.646 µM; at human caspase-3 it was over 100 µM. Also, on human caspase-2, the “Ki (Casp3) / Ki (Casp2)” value was 155.
For the molecule `Cc1ccc2c(c1)CCN(C(=O)CNC(=O)CNC(=O)[C@@H]1Cc3ccccc3N1)[C@@H]2C(=O)N[C@H](C=O)CC(=O)O` [Compound 3, (S)-3-((S)-2-(((S)-indoline-2-carbonyl)glycylglycyl)-6-methyl-1,2,3,4-tetrahydroisoquinolin-1-carboxamido)-4-oxobutanoic acid hydrotrifluoroacetate], the Ki on human caspase-2 (setting [1]) and on human caspase-3 (setting [2]) was over 100 µM in each case.
As to `Cc1ccc2c(c1)CCN(C(=O)[C@@H](NC(=O)[C@H](CCCC(=O)O)NC(=O)[C@@H]1Cc3ccccc3N1)C(C)(C)C)C2C(=O)N[C@H](C=O)CC(=O)O` (stereo partly drawn) [Compound 11, (S)-6-(((S)-1-((S)-1-(((S)-1-carboxy-3-oxopropan-2-yl)carbamoyl)-6-methyl-3,4-dihydroisoquinolin-2(1H)-yl)-3,3-dimethyl-1-oxobutan-2-yl)amino)-5-((S)-indoline-2-carboxamido)-6-oxohexanoic acid hydrotrifluoroacetate] (H-[X3][Aad][Tle][ξTHIQ1CO(6-Me)]D-aldehyde), the figures for the Ki on human caspase-2 and on human caspase-3 were 4.17 µM and over 100 µM, respectively. At human caspase-2, the “Ki (Casp3) / Ki (Casp2)” value amounted to 24.
For the molecule `CC(=O)N1c2ccccc2C[C@H]1C(=O)N[C@@H](CCCC(=O)O)C(=O)NCC(=O)N1CCc2cc(C)ccc2[C@H]1C(=O)N[C@H](C=O)CC(=O)O` [Compound 7, (S)-5-((S)-1-acetylindoline-2-carboxamido)-6-((2-((S)-1-(((S)-1-carboxy-3-oxopropan-2-yl)carbamoyl)-6-methyl-3,4-dihydroisoquinolin-2(1H)-yl)-2-oxoethyl)amino)-6-oxohexanoic acid], the Ki was 0.0295 µM on human caspase-2 (setting [1]) and over 100 µM on human caspase-3 (setting [2]). Moreover, on human caspase-2, the “Ki (Casp3) / Ki (Casp2)” value is reported as 3388.
For the molecule `CC(=O)N1c2ccccc2C[C@H]1C(=O)N[C@@H](CCCC(=O)O)C(=O)N[C@H](C(=O)N1CCc2cc(C)ccc2[C@H]1C(=O)N[C@H](C=O)CC(=O)O)[C@H](C)OCc1ccccc1` [Compound 8, (S)-5-((S)-1-acetylindoline-2-carboxamido)-6-(((2S,3S)-3-(benzyloxy)-1-((S)-1-(((S)-1-carboxy-3-oxopropan-2-yl)carbamoyl)-6-methyl-3,4-dihydroisoquinolin-2(1H)-yl)-1-oxobutan-2-yl)amino)-6-oxohexanoic acid], the Ki on human caspase-2 (setting [1]) was 6.03 µM; on human caspase-3 (setting [2]) it was over 100 µM. The “Ki (Casp3) / Ki (Casp2)” value at human caspase-2 is recorded as 17.
As for `Cc1ccc2c(c1F)CCN(C(=O)[C@@H](NC(=O)[C@H](CCCC(=O)O)NC(=O)[C@H]1Nc3ccc(F)cc3C1(C)C)C(C)C)C2C(=O)N[C@H](C=O)CC(=O)O` (stereo partly drawn) [Compound 15, (S)-6-(((S)-1-((S)-1-(((S)-1-carboxy-3-oxopropan-2-yl)carbamoyl)-5-fluoro-6-methyl-3,4-dihydroisoquinolin-2(1H)-yl)-3-methyl-1-oxobutan-2-yl)amino)-5-((S)-5-fluoro-3,3-dimethylindoline-2-carboxamido)-6-oxohexanoic acid hydrotrifluoroacetate], on human caspase-2, the Ki is 0.174 µM and the “Ki (Casp3) / Ki (Casp2)” value was 575. For the same molecule, the Ki at human caspase-3 is over 100 µM.
Taken in the same sequence, the figures for `Cc1ccc2c(c1)CCN(C(=O)[C@@H](NC(=O)[C@H](CCCC(=O)O)NC(=O)C1Cc3ccccc3N1)C(C)C)[C@@H]2C(=O)N[C@H](C=O)CC(=O)O` (stereo partly drawn) [Compound 2, (S)-6-(((S)-1-((S)-1-(((S)-1-carboxy-3-oxopropan-2-yl)carbamoyl)-6-methyl-3,4-dihydroisoquinolin-2(1H)-yl)-3-methyl-1-oxobutan-2-yl)amino)-5-((S)-indoline-2-carboxamido)-6-oxohexanoic acid hydrotrifluoroacetate] (H-[ξ(indoline-2-carboxyl)][Aad]V[X1]D-aldehyde) were 0.0398 µM, 794 and over 31.6 µM.
As for `Cc1ccc2c(c1)CCN(C(=O)CCCCNC(=O)[C@@H]1Cc3ccccc3N1)[C@@H]2C(=O)N[C@H](C=O)CC(=O)O` [Compound 4, (S)-3-((S)-2-(5-((S)-indoline-2-carboxamido)pentanoyl)-6-methyl-1,2,3,4-tetrahydroisoquinoline-1-carboxamido)-4-oxobutanoic acid hydrotrifluoroacetate], the Ki at human caspase-2 (setting [1]) and at human caspase-3 (setting [2]) was over 100 µM throughout.
